# Experimental data reported in the supplement of paper PMC10307832.
# Experiments:
# Assay in all cases: relative viability (nuclei count vs DMSO), 5 days (fraction); higher = more cells survive
# [1] = tested on: NCI-H2009
# Procedure, shortened: (§1)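 Medians of duplicate plates are given as relative viability. That measure is the nuclei count in treated wells divided by the count in vehicle wells. Counts were taken on 4× images of lung cancer cell lines in 1536-well plates, 5 days after pin-tool dosing the day after seeding with one drug alone or a fixed anchor-drug dose plus five library-drug doses (not always all listed) in √10 steps.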
# [2] = tested on: NCI-H1395
# Procedure, shortened: as §1
# [3] = tested on: BEN
# Procedure, shortened: as §1
# [4] = tested on: NCI-H2228
# Procedure, shortened: as §1
# [5] = tested on: 201T
# Procedure, shortened: as §1
# [6] = tested on: LU99A
# Procedure, shortened: as §1
# [7] = tested on: NCI-H650
# Procedure, shortened: as §1
# [8] = tested on: HCC-15
# Procedure, shortened: as §1
# [9] = tested on: NCI-H2126
# Procedure, shortened: as §1
# [10] = tested on: EPLC-272H
# Procedure, shortened: as §1
# [11] = tested on: LCLC-97TM1
# Procedure, shortened: as §1
# [12] = tested on: NCI-H838
# Procedure, shortened: as §1
# [13] = tested on: NCI-H322M
# Procedure, shortened: as §1
# [14] = tested on: HCC-78
# Procedure, shortened: as §1
# [15] = tested on: NCI-H661
# Procedure, shortened: as §1
# [16] = tested on: NCI-H23
# Procedure, shortened: as §1
# [17] = tested on: NCI-H647
# Procedure, shortened: as §1
# [18] = tested on: NCI-H1355
# Procedure, shortened: as §1
# [19] = tested on: NCI-H2085
# Procedure, shortened: as §1
# [20] = tested on: NCI-H460
# Procedure, shortened: as §1
# [21] = tested on: NCI-H2342
# Procedure, shortened: as §1
# [22] = tested on: NCI-H2405
# Procedure, shortened: as §1
# [23] = tested on: PC-14
# Procedure, shortened: as §1
compound,measurement,setting,value
Cc1cn(-c2cc(NC(=O)c3ccc(C)c(Nc4nccc(-c5cccnc5)n4)c3)cc(C(F)(F)F)c2)cn1 [Nilotinib] + COc1cccc2cc(-c3nc([C@H]4CC[C@H](C(=O)O)CC4)n4ncnc(N)c34)[nH]c12 [OSI-027] (partner 0.5 µM),relative viability,[1]; first compound 0.001 µM,0.486
same,relative viability,[1]; first compound 0.003162 µM,0.624
same,relative viability,[1]; first compound 0.01 µM,0.765
same,relative viability,[1]; first compound 0.03162 µM,0.556
same,relative viability,[1]; first compound 0.1 µM,0.357
same,relative viability,[2]; first compound 0.001 µM,0.673
same,relative viability,[2]; first compound 0.003162 µM,0.467
same,relative viability,[2]; first compound 0.01 µM,0.579
same,relative viability,[2]; first compound 0.03162 µM,0.612
same,relative viability,[2]; first compound 0.1 µM,0.416
same,relative viability,[3]; first compound 0.001 µM,0.295
same,relative viability,[3]; first compound 0.003162 µM,0.285
same,relative viability,[3]; first compound 0.01 µM,0.348
same,relative viability,[3]; first compound 0.03162 µM,0.283
same,relative viability,[3]; first compound 0.1 µM,0.277
same,relative viability,[4]; first compound 0.003162 µM,0.631
same,relative viability,[4]; first compound 0.01 µM,0.588
same,relative viability,[4]; first compound 0.03162 µM,0.449
same,relative viability,[4]; first compound 0.1 µM,0.217
same,relative viability,[5]; first compound 0.001 µM,0.734
same,relative viability,[5]; first compound 0.003162 µM,0.666
same,relative viability,[5]; first compound 0.01 µM,0.77
same,relative viability,[5]; first compound 0.03162 µM,0.317
same,relative viability,[5]; first compound 0.1 µM,0.667
same,relative viability,[6]; first compound 0.001 µM,0.272
same,relative viability,[6]; first compound 0.003162 µM,0.304
same,relative viability,[6]; first compound 0.01 µM,0.256
same,relative viability,[6]; first compound 0.03162 µM,0.313
same,relative viability,[6]; first compound 0.1 µM,0.273
same,relative viability,[7]; first compound 0.001 µM,0.406
same,relative viability,[7]; first compound 0.003162 µM,0.526
same,relative viability,[7]; first compound 0.01 µM,0.486
same,relative viability,[7]; first compound 0.03162 µM,0.441
same,relative viability,[7]; first compound 0.1 µM,0.362
same,relative viability,[8]; first compound 0.001 µM,0.562
same,relative viability,[8]; first compound 0.003162 µM,0.778
same,relative viability,[8]; first compound 0.01 µM,0.775
same,relative viability,[8]; first compound 0.03162 µM,0.435
same,relative viability,[8]; first compound 0.1 µM,0.306
same,relative viability,[9]; first compound 0.001 µM,0.673
same,relative viability,[9]; first compound 0.003162 µM,0.706
same,relative viability,[9]; first compound 0.01 µM,0.572
same,relative viability,[9]; first compound 0.03162 µM,0.582
same,relative viability,[9]; first compound 0.1 µM,0.544
same,relative viability,[10]; first compound 0.001 µM,0.24
same,relative viability,[10]; first compound 0.003162 µM,0.275
same,relative viability,[10]; first compound 0.01 µM,0.325
same,relative viability,[10]; first compound 0.03162 µM,0.246
same,relative viability,[10]; first compound 0.1 µM,0.177
same,relative viability,[11]; first compound 0.001 µM,0.552
same,relative viability,[11]; first compound 0.003162 µM,0.559
same,relative viability,[11]; first compound 0.01 µM,0.479
same,relative viability,[11]; first compound 0.03162 µM,0.432
same,relative viability,[11]; first compound 0.1 µM,0.467
same,relative viability,[12]; first compound 0.001 µM,0.427
same,relative viability,[12]; first compound 0.003162 µM,0.381
same,relative viability,[12]; first compound 0.01 µM,0.377
same,relative viability,[12]; first compound 0.03162 µM,0.35
same,relative viability,[12]; first compound 0.1 µM,0.429
same,relative viability,[13]; first compound 0.001 µM,0.516
same,relative viability,[13]; first compound 0.003162 µM,0.436
same,relative viability,[13]; first compound 0.01 µM,0.422
same,relative viability,[13]; first compound 0.03162 µM,0.384
same,relative viability,[13]; first compound 0.1 µM,0.481
same,relative viability,[14]; first compound 0.001 µM,0.444
same,relative viability,[14]; first compound 0.003162 µM,0.368
same,relative viability,[14]; first compound 0.01 µM,0.352
same,relative viability,[14]; first compound 0.03162 µM,0.373
same,relative viability,[14]; first compound 0.1 µM,0.403
same,relative viability,[15]; first compound 0.001 µM,0.672
same,relative viability,[15]; first compound 0.003162 µM,0.69
same,relative viability,[15]; first compound 0.03162 µM,0.538
same,relative viability,[15]; first compound 0.1 µM,0.634
same,relative viability,[16]; first compound 0.001 µM,0.58
same,relative viability,[16]; first compound 0.003162 µM,0.418
same,relative viability,[16]; first compound 0.01 µM,0.418
same,relative viability,[16]; first compound 0.03162 µM,0.361
same,relative viability,[16]; first compound 0.1 µM,0.412
same,relative viability,[17]; first compound 0.001 µM,0.638
same,relative viability,[17]; first compound 0.003162 µM,0.749
same,relative viability,[17]; first compound 0.01 µM,0.762
same,relative viability,[17]; first compound 0.03162 µM,0.355
same,relative viability,[17]; first compound 0.1 µM,0.644
same,relative viability,[18]; first compound 0.001 µM,0.384
same,relative viability,[18]; first compound 0.003162 µM,0.388
same,relative viability,[18]; first compound 0.01 µM,0.324
same,relative viability,[18]; first compound 0.03162 µM,0.314
same,relative viability,[18]; first compound 0.1 µM,0.329
same,relative viability,[19]; first compound 0.001 µM,0.695
same,relative viability,[19]; first compound 0.003162 µM,0.549
same,relative viability,[19]; first compound 0.01 µM,0.699
same,relative viability,[19]; first compound 0.03162 µM,0.428
same,relative viability,[19]; first compound 0.1 µM,0.467
same,relative viability,[20]; first compound 0.001 µM,0.367
same,relative viability,[20]; first compound 0.003162 µM,0.2
same,relative viability,[20]; first compound 0.01 µM,0.327
same,relative viability,[20]; first compound 0.03162 µM,0.255
same,relative viability,[20]; first compound 0.1 µM,0.0921
same,relative viability,[21]; first compound 0.001 µM,0.605
same,relative viability,[21]; first compound 0.003162 µM,0.618
same,relative viability,[21]; first compound 0.01 µM,0.558
same,relative viability,[21]; first compound 0.03162 µM,0.536
same,relative viability,[21]; first compound 0.1 µM,0.518
same,relative viability,[22]; first compound 0.001 µM,0.594
same,relative viability,[22]; first compound 0.003162 µM,0.617
same,relative viability,[22]; first compound 0.01 µM,0.568
same,relative viability,[22]; first compound 0.03162 µM,0.609
same,relative viability,[22]; first compound 0.1 µM,0.432
same,relative viability,[23]; first compound 0.001 µM,0.611
same,relative viability,[23]; first compound 0.003162 µM,1.03
same,relative viability,[23]; first compound 0.01 µM,0.846
same,relative viability,[23]; first compound 0.03162 µM,0.312
same,relative viability,[23]; first compound 0.1 µM,0.254
